The structures appear in SMILES notation.

H1047R PIK3CA enzyme, sequence (P42336 whole entry H1047R): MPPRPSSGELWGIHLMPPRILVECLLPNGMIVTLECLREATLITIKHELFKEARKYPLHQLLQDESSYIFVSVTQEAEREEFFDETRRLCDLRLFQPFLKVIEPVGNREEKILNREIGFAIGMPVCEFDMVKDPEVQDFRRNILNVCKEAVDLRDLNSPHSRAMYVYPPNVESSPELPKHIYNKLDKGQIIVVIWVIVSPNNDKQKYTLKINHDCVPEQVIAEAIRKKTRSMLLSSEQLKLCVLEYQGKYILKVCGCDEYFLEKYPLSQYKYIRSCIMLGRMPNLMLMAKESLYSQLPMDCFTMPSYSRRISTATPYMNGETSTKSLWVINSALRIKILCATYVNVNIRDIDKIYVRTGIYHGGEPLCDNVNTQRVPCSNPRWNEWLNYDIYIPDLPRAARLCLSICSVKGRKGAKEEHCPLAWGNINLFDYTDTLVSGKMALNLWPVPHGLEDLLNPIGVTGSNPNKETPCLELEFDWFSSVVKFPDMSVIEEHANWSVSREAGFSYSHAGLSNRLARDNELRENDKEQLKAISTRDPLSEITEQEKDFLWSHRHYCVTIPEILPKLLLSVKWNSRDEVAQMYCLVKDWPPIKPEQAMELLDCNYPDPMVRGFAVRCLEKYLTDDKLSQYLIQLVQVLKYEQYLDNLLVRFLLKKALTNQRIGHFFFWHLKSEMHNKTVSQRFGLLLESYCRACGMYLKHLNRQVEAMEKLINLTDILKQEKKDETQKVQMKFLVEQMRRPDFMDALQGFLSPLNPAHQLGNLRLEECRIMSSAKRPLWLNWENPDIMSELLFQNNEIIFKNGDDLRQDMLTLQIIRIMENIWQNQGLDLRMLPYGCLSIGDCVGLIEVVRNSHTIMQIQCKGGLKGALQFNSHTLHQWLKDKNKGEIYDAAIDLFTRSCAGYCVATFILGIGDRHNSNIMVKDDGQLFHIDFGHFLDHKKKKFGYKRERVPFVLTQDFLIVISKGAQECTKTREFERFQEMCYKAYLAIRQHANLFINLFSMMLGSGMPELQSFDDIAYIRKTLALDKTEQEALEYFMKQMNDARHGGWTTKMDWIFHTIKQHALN
H1047R PIK3CA enzyme, sequence (P27986 whole entry partner): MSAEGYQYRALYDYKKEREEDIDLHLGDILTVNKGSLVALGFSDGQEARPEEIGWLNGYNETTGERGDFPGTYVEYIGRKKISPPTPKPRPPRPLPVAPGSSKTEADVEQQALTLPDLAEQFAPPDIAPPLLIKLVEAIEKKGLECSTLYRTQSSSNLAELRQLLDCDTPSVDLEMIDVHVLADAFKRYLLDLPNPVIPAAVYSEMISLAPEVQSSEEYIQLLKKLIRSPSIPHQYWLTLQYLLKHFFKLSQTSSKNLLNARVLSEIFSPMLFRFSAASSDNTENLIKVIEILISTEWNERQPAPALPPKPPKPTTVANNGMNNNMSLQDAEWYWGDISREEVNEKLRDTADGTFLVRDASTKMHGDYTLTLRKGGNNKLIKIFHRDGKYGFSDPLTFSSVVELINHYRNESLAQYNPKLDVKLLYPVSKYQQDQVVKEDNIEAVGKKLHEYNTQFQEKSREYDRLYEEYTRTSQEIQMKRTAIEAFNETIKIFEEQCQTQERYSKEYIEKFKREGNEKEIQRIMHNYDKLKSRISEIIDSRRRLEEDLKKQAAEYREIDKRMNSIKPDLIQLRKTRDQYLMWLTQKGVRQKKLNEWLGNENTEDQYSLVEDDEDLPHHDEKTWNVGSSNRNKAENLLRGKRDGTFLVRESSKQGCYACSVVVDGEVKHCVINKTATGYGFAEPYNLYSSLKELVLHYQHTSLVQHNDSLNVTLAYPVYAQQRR

This assay addresses H1047R PIK3CA enzyme (Homo sapiens, UniProt P42336, H1047R). The assay is described as follows: ADP-Glo Biochemical PIK3CA Kinase Assay. On the technique in general: ADP-Glo first removes unused ATP, then detects ADP through luciferase.
Consider `O=C(Nc1cc(C#CC2COC2)cc2c1C(c1cc(F)ccc1Cl)NC2=O)c1cc(F)cc(C(F)(F)F)c1` (stereo not shown) [Compound I-1223], for which the IC50 (commonly the concentration needed to halve the response being measured) is at most 0.1 µM.
As for `O=C(Nc1cc(C#Cc2ccncc2)cc2c1C(c1cc(F)ccc1Cl)NC2=O)c1cc(F)cc(C(F)(F)F)c1` (stereo not shown) [Compound I-1224], the figure is at most 0.1 µM; as for `O=C(Nc1cc(C#Cc2cccnc2)cc2c1C(c1cc(F)ccc1Cl)NC2=O)c1cc(F)cc(C(F)(F)F)c1` (stereo not shown) [Compound I-1225], at most 0.1 µM.
In turn, `O=C(Nc1cc(-c2ccc3ncnn3c2)nc2c1C(c1cc(F)ccc1Cl)NC2=O)c1cc(F)cc(C(F)(F)F)c1` (stereo not shown) [Compound I-1226] came in with an IC50 of at most 0.1 µM.
`O=C(Nc1cc(N2CCCc3ncccc32)cc2c1C(c1cc(F)ccc1Cl)NC2=O)c1cc(F)cc(C(F)(F)F)c1` (stereo not shown) [Compound I-1227] came in with a concentration for half-maximal inhibition (IC50) of at most 0.1 µM.
As for `CS(=O)(=O)N1CC(c2cc(NC(=O)c3cc(F)cc(C(F)(F)F)c3)c3c(c2)C(=O)NC3c2cc(F)ccc2Cl)C1` (stereo not shown) [Compound I-1228], the figure is at most 0.1 µM; as for `O=C(Nc1cc(-c2ccc3ncnn3c2)nc2c1[C@H](c1cc(F)ccc1Cl)NC2=O)c1cc(F)cc(C(F)(F)F)c1` [Compound I-1229], at most 0.1 µM; as for `O=C(Nc1cc(-c2ccc3ncnn3c2)nc2c1[C@@H](c1cc(F)ccc1Cl)NC2=O)c1cc(F)cc(C(F)(F)F)c1` [Compound I-1230], 0.1 to 0.5 µM.
To `O=C(Nc1cc(-n2cnc3ncccc32)cc2c1C(c1cc(F)ccc1Cl)NC2=O)c1cc(F)cc(C(F)(F)F)c1` (stereo not shown) [Compound I-1233] belongs at most 0.1 µM; to `C=CCCCOc1cc(NC(=O)c2cc(F)cc(C(F)(F)F)c2)c2c(c1)C(=O)NC2c1cc(F)ccc1Cl` (stereo not shown) [Compound I-1234], 0.5 to 1 µM; to `CN1CCN(Cc2cc(NC(=O)c3cc(F)cc(C(F)(F)F)c3)c3c(c2)C(=O)NC3c2cc(F)ccc2Cl)CC1=O` (stereo not shown) [Compound I-1235], 0.1 to 0.5 µM.
The compound `O=C(Nc1cc(N2CCn3ccnc3C2)cc2c1C(c1cc(F)ccc1Cl)NC2=O)c1cc(F)cc(C(F)(F)F)c1` (stereo not shown) [Compound I-1236] yielded an IC50 of at most 0.1 µM.
To `O=C(Nc1cc(N2CCn3cncc3C2)cc2c1C(c1cc(F)ccc1Cl)NC2=O)c1cc(F)cc(C(F)(F)F)c1` (stereo not shown) [Compound I-1237] belongs at most 0.1 µM; to `COC(=O)c1cc(Nc2cccc3c2C(c2cc(F)ccc2Cl)NC3=O)ncc1C(F)(F)F` (stereo not shown) [Compound I-1238], 1 to 10 µM.
Compound `Cc1cc(=O)[nH]cc1C(=O)Nc1cc(Br)cc2c1C(c1cc(F)ccc1Cl)NC2=O` (stereo not shown) [Compound I-1240] yielded an IC50 of 10 to 100 µM.
Take `O=C(Nc1cc(Br)cc2c1C(c1cc(F)ccc1Cl)NC2=O)c1cc(F)cc(COC(F)(F)F)c1` (stereo not shown) [Compound I-1241]: the half-inhibitory concentration (IC50) fell in the range of 1 to 10 µM.
The compound `O=C(Nc1cc(Br)cc2c1C(c1cc(F)ccc1Cl)NC2=O)c1cc(Cl)cc2c1NCCO2` (stereo not shown) [Compound I-1242] showed an IC50 of 1 to 10 µM.
In turn, `O=C(Nc1cc(C#Cc2ccn[nH]2)cc2c1C(c1cc(F)ccc1Cl)NC2=O)c1cc(F)cc(C(F)(F)F)c1` (stereo not shown) [Compound I-1244] displayed an IC50 of at most 0.1 µM.
Consider `Cc1ncc(Nc2cc(NC(=O)c3cc(F)cc(C(F)(F)F)c3)c3c(c2)C(=O)NC3c2cc(F)ccc2Cl)cn1` (stereo not shown) [Compound I-1245], for which the IC50 is at most 0.1 µM.
Regarding `O=C(Nc1cc(Oc2ncncc2F)cc2c1C(c1cc(F)ccc1Cl)NC2=O)c1cc(F)cc(C(F)(F)F)c1` (stereo not shown) [Compound I-1246], the half-maximal inhibitory concentration (IC50) is at most 0.1 µM.
In turn, `Cn1cncc1C#Cc1cc(NC(=O)c2cc(F)cc(C(F)(F)F)c2)c2c(c1)C(=O)NC2c1cc(F)ccc1Cl` (stereo not shown) [Compound I-1247] gave an IC50 of at most 0.1 µM.
As for `O=C(Nc1cc(N2CCS(=O)(=O)CC2)cc2c1C(c1cc(F)ccc1Cl)NC2=O)c1cc(F)cc(C(F)(F)F)c1` (stereo not shown) [Compound I-1248], the figure is at most 0.1 µM.
To `CN1CCN(c2cc(NC(=O)c3cc(F)cc(C(F)(F)F)c3)c3c(c2)C(=O)NC3c2cc(F)ccc2Cl)CC1=O` (stereo not shown) [Compound I-1249] belongs at most 0.1 µM; to `O=C(Nc1cc(-n2ccc3ncccc3c2=O)cc2c1C(c1cc(F)ccc1Cl)NC2=O)c1cc(F)cc(C(F)(F)F)c1` (stereo not shown) [Compound I-1250], at most 0.1 µM; to `CC(=O)N1CC(Oc2cc(NC(=O)c3cc(F)cc(C(F)(F)F)c3)c3c(c2)C(=O)NC3c2cc(F)ccc2Cl)C1` (stereo not shown) [Compound I-1251], 0.1 to 0.5 µM.
Consider `O=C(Nc1cc(OC2CNC2)cc2c1C(c1cc(F)ccc1Cl)NC2=O)c1cc(F)cc(C(F)(F)F)c1` (stereo not shown) [Compound I-1252], for which the IC50 lay within 0.1 to 0.5 µM.
`CC(C)Oc1cc(NC(=O)c2cc(F)cc(C(F)(F)F)c2)c2c(c1)C(=O)NC2c1cc(F)ccc1Cl` (stereo not shown) [Compound I-1253] showed a concentration for half-maximal inhibition (IC50) of at most 0.1 µM.
`CS(C)(=O)=Nc1cc(NC(=O)c2cc(F)cc(C(F)(F)F)c2)c2c(c1)C(=O)NC2c1cc(F)ccc1Cl` (stereo not shown) [Compound I-1254] returned a half-maximal inhibitory concentration (IC50) of 0.1 to 0.5 µM.
As for `O=C(Nc1cc(Br)cc2c1C(c1cc(F)ccc1Cl)NC2=O)NC12CC3CC(C1)CC(C(F)(F)F)(C3)C2` (stereo not shown) [Compound I-1256], the figure is 0.1 to 0.5 µM; as for `O=C(Nc1cc(Br)cc2c1C(c1cc(F)ccc1Cl)NC2=O)NC12CC3CC(CC(C3)C1)C2` (stereo not shown) [Compound I-1257], 0.1 to 0.5 µM; as for `O=C(Nc1cc(Nc2cn[nH]c2)cc2c1[C@H](c1cc(F)ccc1Cl)NC2=O)c1cc(F)cc(C(F)(F)F)c1` [Compound I-1258], at most 0.1 µM.
`O=C(Nc1cc(Nc2cn[nH]c2)cc2c1[C@@H](c1cc(F)ccc1Cl)NC2=O)c1cc(F)cc(C(F)(F)F)c1` [Compound I-1259]: the 50% inhibitory concentration (IC50) was 1 to 10 µM.
Take `O=C(Nc1cc(N2CCc3ncccc32)cc2c1C(c1cc(F)ccc1Cl)NC2=O)c1cc(F)cc(C(F)(F)F)c1` (stereo not shown) [Compound I-1260]: the IC50 is at most 0.1 µM.
Compound `O=C(Nc1cc(N2CCc3cnccc32)cc2c1C(c1cc(F)ccc1Cl)NC2=O)c1cc(F)cc(C(F)(F)F)c1` (stereo not shown) [Compound I-1261] had an IC50 of at most 0.1 µM.
Compound `N#Cc1ccc2c(c1)CCCN2c1cc(NC(=O)c2cc(F)cc(C(F)(F)F)c2)c2c(c1)C(=O)NC2c1cc(F)ccc1Cl` (stereo not shown) [Compound I-1262] gave an IC50 of at most 0.1 µM.
For the compound `N#Cc1ccc2c(c1)CCN2c1cc(NC(=O)c2cc(F)cc(C(F)(F)F)c2)c2c(c1)C(=O)NC2c1cc(F)ccc1Cl` (stereo not shown) [Compound I-1263], the concentration for half-maximal inhibition (IC50) was at most 0.1 µM.
Compound `O=C(Nc1cc(-c2ccccc2S(=O)(=O)F)cc2c1C(c1cc(F)ccc1Cl)NC2=O)c1cc(F)cc(C(F)(F)F)c1` (stereo not shown) [Compound I-1264] registered an IC50 of at most 0.1 µM.
Turning to `O=C(O)Cc1ccccc1-c1cc(NC(=O)c2cc(F)cc(C(F)(F)F)c2)c2c(c1)C(=O)NC2c1cc(F)ccc1Cl` (stereo not shown) [Compound I-1265], the IC50 was in the range of 0.1 to 0.5 µM.
`O=C(Nc1cc(C2CC23CC3)cc2c1C(c1cc(F)ccc1Cl)NC2=O)c1cc(F)cc(C(F)(F)F)c1` (stereo not shown) [Compound I-1266] came in with a half-maximal inhibitory concentration (IC50) of at most 0.1 µM.
Consider `O=C1CC2(CCN(c3cc(NC(=O)c4cc(F)cc(C(F)(F)F)c4)c4c(c3)C(=O)NC4c3cc(F)ccc3Cl)C2)CN1` (stereo not shown) [Compound I-1267], for which the IC50 was at most 0.1 µM.
As for `CC(C)(C#N)c1cc(NC(=O)c2cc(F)cc(C(F)(F)F)c2)c2c(c1)C(=O)NC2c1cc(F)ccc1Cl` (stereo not shown) [Compound I-1268], the figure is at most 0.1 µM; as for `O=C1NC(c2cc(F)ccc2Cl)c2c(NC(=O)N3CCc4cc(Cl)ccc43)cc(Br)cc21` (stereo not shown) [Compound I-1269], 1 to 10 µM; as for `O=C1NC(c2cc(F)ccc2Cl)c2c(NC(=O)N3CCc4cc(F)ccc43)cc(Br)cc21` (stereo not shown) [Compound I-1270], at most 0.1 µM.
In turn, `O=C1NC(c2cc(F)ccc2Cl)c2c(NC(=O)c3cccc4c(Cl)c[nH]c34)cc(Br)cc21` (stereo not shown) [Compound I-1271] displayed an IC50 of 0.5 to 1 µM.
`Cn1cncc1-c1cc(NC(=O)c2cc(F)cc(C(F)(F)F)c2)c2c(c1)C(=O)NC2c1cc(F)ccc1Cl` (stereo not shown) [Compound I-1272]: the 50% inhibitory concentration (IC50) was at most 0.1 µM.
`O=C(Nc1cc(N2CCCC2=O)cc2c1C(c1cc(F)ccc1Cl)NC2=O)c1cc(F)cc(C(F)(F)F)c1` (stereo not shown) [Compound I-1273] had a half-inhibitory concentration (IC50) of at most 0.1 µM.
Compound `O=C1NC(c2ccccc2Cl)c2c(NC(=O)c3cc(F)cc(C(F)(F)F)c3)cccc2O1` (stereo not shown) [Compound I-1274] yielded an IC50 of 0.5 to 1 µM.
`CN(C)S(=O)(=O)Cc1cc(NC(=O)c2cc(F)cc(C(F)(F)F)c2)c2c(c1)C(=O)NC2c1cc(F)ccc1Cl` (stereo not shown) [Compound I-1275] had a concentration for half-maximal inhibition (IC50) of at most 0.1 µM.
In turn, `CS(=O)(=O)c1cc(NC(=O)c2cc(F)cc(C(F)(F)F)c2)c2c(c1)C(=O)NC2c1cc(F)ccc1Cl` (stereo not shown) [Compound I-1276] gave an IC50 of at most 0.1 µM.
To `CN1CC(c2cc(NC(=O)c3cc(F)cc(C(F)(F)F)c3)c3c(c2)C(=O)NC3c2cc(F)ccc2Cl)NCC1=O` (stereo not shown) [Compound I-1277] belongs at most 0.1 µM; to `O=C(Nc1cc(C(O)c2ccccn2)cc2c1C(c1cc(F)ccc1Cl)NC2=O)c1cc(F)cc(C(F)(F)F)c1` (stereo not shown) [Compound I-1278], at most 0.1 µM; to `O=C(Nc1cc(CC2COC2)cc2c1C(c1cc(F)ccc1Cl)NC2=O)c1cc(F)cc(C(F)(F)F)c1` (stereo not shown) [Compound I-1279], at most 0.1 µM.
The compound `O=C(Nc1cc(C2CN(C3COC3)C2)cc2c1C(c1cc(F)ccc1Cl)NC2=O)c1cc(F)cc(C(F)(F)F)c1` (stereo not shown) [Compound I-1280] had a half-maximal inhibitory concentration (IC50) of at most 0.1 µM.
For the compound `O=C(Nc1cc(C2(O)COC2)cc2c1C(c1cc(F)ccc1Cl)NC2=O)c1cc(F)cc(C(F)(F)F)c1` (stereo not shown) [Compound I-1281], the IC50 is at most 0.1 µM.
For `O=C(Nc1cc(Br)cc2c1C(c1cc(F)ccc1Cl)NC2=O)c1cc(O)cc(Cl)c1` (stereo not shown) [Compound I-1282], the half-maximal inhibitory concentration (IC50) was 0.1 to 0.5 µM.
Turning to `O=C(Nc1cc(Br)cc2c1C(c1cc(F)ccc1Cl)NC2=O)c1cc(O)cc(F)c1` (stereo not shown) [Compound I-1283], the IC50 fell in the range of 1 to 10 µM.
In turn, `O=C(Nc1cc(Br)cc2c1C(c1cc(F)ccc1Cl)NC2=O)c1ccc[n+]([O-])c1` (stereo not shown) [Compound I-1284] displayed a concentration for half-maximal inhibition (IC50) of 10 to 100 µM.
Compound `O=C(Nc1cc(Br)cc2c1C(c1cc(F)ccc1Cl)NC2=O)c1cc(F)cc(COC(F)F)c1` (stereo not shown) [Compound I-1285] displayed an IC50 of 10 to 100 µM.
Compound `O=C(Nc1cc(Br)cc2c1C(c1cc(F)ccc1Cl)NC2=O)c1ccc(OC(F)F)c(F)c1` (stereo not shown) [Compound I-1286] yielded a 50% inhibitory concentration (IC50) of 1 to 10 µM.
Take `O=C1NC(c2cc(F)ccc2Cl)c2c(NS(=O)(=O)N3CCc4ccccc43)cc(Br)cc21` (stereo not shown) [Compound I-1287]: the half-inhibitory concentration (IC50) lay within 10 to 100 µM.
`CC(F)c1cc(F)cc(C(=O)Nc2cc(Br)cc3c2C(c2cc(F)ccc2Cl)NC3=O)c1` (stereo not shown) [Compound I-1288]: the IC50 is 0.1 to 0.5 µM.

Source of the values: patent US12581252B2, “Substituted pyrrolo[3,4-b]pyridines as PI3K-α inhibitors” (Relay Therapeutics, Inc., priority 2020, dated 2026).
